Laboratory results as given in PMC5323132, “Targeting prohibitins induces apoptosis in acute myeloid leukemia cells” (Oncotarget, 2016).
Where “and” joins values, the source holds several entries; their conditions need not be identical. Equal entries are not always repeated. Where two headings read alike, the source gives them in different places.

Legend:
HL-60 cells [1] = test: MTT cell viability assay; assay type: cell-based; details: Homo sapiens, read-out: IC50 (half-maximal inhibitory concentration), MTT
Experimental: (§1) HL-60 and U-937 cells (1.25 × 10^5 cells/well) were incubated in the absence or in the presence of the indicated factors, in a final volume of 250 μL. After 24 or 48 hours, 25 μL MTT reagent (prepared at 5 mg/mL in phosphate-buffered saline (PBS)) was added to each well for an additional 3 hours. The blue MTT formazan precipitate was dissolved in 250 μL isopropanol:1 M HCl (24:1). Then, 100 μL of this cell lysate were plated in a 96-well plate in triplicate and the absorbance values at 570 nm were measured on a multiwell plate reader. The half-maximal inhibitory concentration (IC50) was defined as the concentration of drug required to reduce the MTT metabolization ability by 50%.

U-937 cells [2] = test: MTT cell viability assay; assay type: cell-based; details: Homo sapiens, read-out: IC50 (half-maximal inhibitory concentration), MTT
Experimental: as §1

HL-60 cells [3] = test: Viability by phosphatidylserine exposure (annexin V) flow cytometry; assay type: cell-based, human; details: 48 hours
Experimental: (§2) Cell viability was assessed by phosphatidylserine exposure and measured as the percentage of annexin V-negative cell population. After incubation of 1.25 × 10^5 cells with the indicated factors and times, cells were then washed in annexin-binding buffer (ABB) and incubated in 100 μL ABB with 0.5 μL annexin V-APC for 10 min in the dark and then diluted with ABB to a final volume of 150 μL. Occasionally, 3.75 μL PI were added after annexin V staining and immediately before acquisition to measure the percentage of annexin V^−/PI^− live cells. In AML samples with infiltration lower than 80% blasts, double staining with anti-CD33 or anti-CD34, and annexin V was performed. In brief, cells were washed in ABB and incubated in 50 μL ABB containing 0.5 μL anti-CD33 or anti-CD34 for 10 min in the dark and thereafter stained with annexin V, as previously mentioned. Cells were acquired using the FACSCanto^TM II flow cytometer (Becton Dickinson, Franklin Lakes, NJ, USA) and data of bulk leukemic/normal and CD33^+- or CD34^+-gated leukemic/normal progenitor cells were analyzed using the FACSDiva^TM software (Becton Dickinson). Half-maximal lethal dose (LD50) was defined as the concentration of drug required to reduce the cell viability by 50%. Patient samples were considered as “sensitive” to fluorizoline when cell viability was lower than 80% after incubation with 20 μM during 48 hours.

U-937 cells [4] = test: as above; assay type: cell-based, human; details: for viability at 5 µM: Homo sapiens, read-out: Viability (%) (annexin V negative cells)
Experimental: (§3) Cell viability was assessed by phosphatidylserine exposure and measured as the percentage of annexin V-negative cell population. […] Occasionally, 3.75 μL PI were added after annexin V staining and immediately before acquisition to measure the percentage of annexin V^−/PI^− live cells. In AML samples with infiltration lower than 80% blasts, double staining with anti-CD33 or anti-CD34, and annexin V was performed. In brief, cells were washed in ABB and incubated in 50 μL ABB containing 0.5 μL anti-CD33 or anti-CD34 for 10 min in the dark and thereafter stained with annexin V, as previously mentioned. Cells were acquired using the FACSCanto^TM II flow cytometer (Becton Dickinson, Franklin Lakes, NJ, USA) and data of bulk leukemic/normal and CD33^+- or CD34^+-gated leukemic/normal progenitor cells were analyzed using the FACSDiva^TM software (Becton Dickinson). […] Patient samples were considered as “sensitive” to fluorizoline when cell viability was lower than 80% after incubation with 20 μM during 48 hours.

[5] = test system: primary AML cells (BMMNC or PBMNC from AML patients); test: Ex vivo viability (annexin V) of primary AML cells; assay type: cell-based, human
Experimental: PBMNC and BMMNC were isolated by centrifugation on a Biocoll (Biochrom AG, Berlin, Germany) gradient and cryopreserved in liquid nitrogen in the presence of 10% dimethyl sulfoxide (DMSO) (Sigma-Aldrich Inc, St Louis, MO, USA).
as §3

[6] = Ex vivo viability (annexin V) of normal hematologic cells; assay type: cell-based, human; details: human, normal BMMNC and normal hematopoietic stem cells (PBSC); normal cells, 20 μM, 24 hours; read-out: viable cells (percentage of viability of untreated cells)
Experimental: (§4) Normal BMMNC was obtained from apheresis-collected granulocyte colony-stimulating factor (G-CSF)-mobilized progenitor-cell from PB of 3 healthy donors were used as a source of normal CD34^+ cells.
as §3

[7] = test system: normal BMMNC and normal hematopoietic stem cells (PBSC); test: as above; assay type: cell-based, human; details: for median LD50: normal cells
Experimental: as §4, §3

U-937 cells [8] = test: Methylcellulose colony-forming unit (CFU) assay; assay type: cell-based, human; details: pretreated 24 hours, n = 4
Experimental: (§5) The analysis of the clonogenic capacity after exposition to the fluorizoline was performed using a methylcellulose-based medium with recombinant cytokines and erythropoietin (EPO) for human hematopoietic progenitor cells (MethoCult^TM H4034 Optimum, StemCell Technologies). U-937 cells and primary AML cells were pretreated for 24 hours with the indicated factors, as previously mentioned. Then, cells (1 × 10^3 U-937 cells or 50 × 10^3 primary AML cells) were diluted in 100 μL serum-free IMDM with 25 mM HEPES, homogeneously mixed with 1 mL MethoCult^TM medium, seeded in duplicate cultures and maintained at 37°C with 5% CO2 in air in a humidified atmosphere. Colonies (CFU) were screened based on morphology and cellularity at day 10 (U-937 cells) or day 14 (primary AML cells) using an inverted microscope. A colony was defined as a cluster of > 40 cells.

primary AML cells = test: Methylcellulose colony-forming unit (CFU) assay; assay type: cell-based, human; details: pretreated 24 hours, n = 5
Experimental: as §5

CD11b in U-937 cells = test: Differentiation assay, CD11b surface expression by flow cytometry; assay type: cell-based; details: Homo sapiens, 48 hours, read-out: CD11b surface marker expression, fold induction compared to DMSO-treated cells
Experimental: (§6) Myeloid maturation induction was assessed by cell surface marker expression analysis. U-937 and primary AML cells were treated as indicated for cell viability assays. After 24 and 48 hours of incubation cells were collected and stained in 50 μL PBS buffer containing 2 mM EDTA and 0.5% bovine serum albumin (BSA) with 0.5 μL anti-human CD11b for 10 min in the dark and then diluted with buffer to a final volume of 150 μL. In parallel, cell viability was analyzed by annexin V staining in separated tubes. Surface expression of the antigen was analyzed by flow cytometry. In these experiments vehicle-treated cells were also included in order to discard DMSO-induced myeloid differentiation.

[9] = test system: CD11b in de novo AML primary samples; test: as above; assay type: cell-based; details: Homo sapiens, 48 hours, read-out: CD11b surface marker expression, fold induction compared to DMSO-treated cells
Experimental: as §6

NOXA mRNA in U-937 cells = test: RT-MLPA apoptosis-related gene expression; assay type: cell-based; details: Homo sapiens
Experimental: RNA was isolated from cultured 3–5 × 10^6 cells by the RNeasy Micro kit (Qiagen GmbH, Hilden, Germany) according to the manufacturer's protocol. RNA was analyzed by RT-MLPA using SALSA MLPA KIT R011-C1 Apoptosis mRNA from MRC-Holland (Amsterdam, The Netherlands) for the simultaneous detection of 40 messenger RNA molecules, including apoptosis-related genes. In brief, RNA samples (200 ng total RNA) were first reverse transcribed using a gene-specific primer mix. The resulting cDNA was annealed overnight at 60°C to the RT-MLPA probe mix. Annealed oligonucleotides were ligated by adding Ligase-65 (MRC-Holland) and incubated at 54°C for 15 min. Ligation products were amplified by PCR (35 cycles, 30 s at 95°C; 30 s at 60°C, and 1 min at 72°C) with one unlabeled and one FAM-labeled primer. The final PCR fragments amplified were separated by capillary electrophoresis on a 96-capillary ABI-Prism® 3730XL Genetic Analyzer (Applied Biosystems/Hitachi, Carlsbad, CA, USA). Peak area and height were measured using GeneMapper^TM v3.0 analysis software (Applied Biosystems). Ratios of individual peaks relative to the sum of all peaks were calculated, resulting in the relative abundance of mRNAs of the genes of interest.

[10] = test system: CD34+ population of AML specimens; test: Ex vivo viability (annexin V) on CD34+ population of AML specimens; assay type: cell-based, human; details: six AML specimens, 48 hours
Experimental: as §2

[11] = test system: CD34- population of AML specimens; test: Ex vivo viability (annexin V) on CD34- population of AML specimens; assay type: cell-based, human; details: six AML specimens, 48 hours
Experimental: as §2

[12] = Figure 5C, 24 h, fluorizoline 5 μM, Q-VD-OPh 20 μM pre-incubated 30 min

`FC1(F)N=C(c2ccc(Cl)cc2)SC1(F)c1ccc(Cl)cc1` (centres unmarked) [fluorizoline] showed an IC50 (HL-60 cells [1]; HL-60, 24 h) of 8 µM, an IC50 (HL-60 cells [1]; HL-60, 48 h) of 6 µM and an IC50 (U-937 cells [2]; U-937, 24 h) of 7 µM. The IC50 (U-937 cells [2]; U-937, 48 h) was 5 µM, the “LD50 (half-maximal lethal dose), annexin V” value (HL-60 cells [3]) was 40 µM and the “annexin V-/PI+ population” value (U-937 cells [4]; 10 µM fluorizoline, 24 h, annexin V/PI double staining) was “less than 6%”. The “mean LD50, annexin V” value (U-937 cells [4]; 24 hours) was “above 40 μM”, the “mean LD50, annexin V” value (U-937 cells [4]; 48 hours) was 14 µM and the viability at 5 µM (U-937 cells [4]; Figure 5B, 5 μM, 4 h) was 93%. The viability at 5 µM (U-937 cells [4]; Figure 5B, 5 μM, 8 h) was 92%, the viability at 5 µM (U-937 cells [4]; Figure 5B, 5 μM, 24 h) was 64% and the viability at 5 µM (U-937 cells [4]; [12]) was 63%. For the same compound, the “median LD50” value ([5]; 24 hours, sensitive patient samples (n = 15)) was 8.0 ± 1.7 µM, the “mean LD50” value ([5]; 48 hours, n = 21) was 5.3 ± 0.8 µM and the viability at 10 µM ([5]; Homo sapiens, 2 h, Figure 6B, patient #14, 10 μM, 2 h, read-out: Viability (%) (annexin V negative cells)) was 95%. The viability at 10 µM ([5]; Homo sapiens, 4 h, Figure 6B, patient #14, 10 μM, 4 h, read-out: Viability (%) (annexin V negative cells)) was 92%, the viability at 10 µM ([5]; Homo sapiens, 8 h, Figure 6B, patient #14, 10 μM, 8 h, read-out: Viability (%) (annexin V negative cells)) was 87% and the viability at 10 µM ([5]; Homo sapiens, 8 h, Figure 6C, patient #13, 10 μM, 8 h, read-out: Viability (%) (annexin V negative cells)) was 35%. It also gave a viability at 10 µM ([5]; Homo sapiens, 8 h, Figure 6C, patient #16, 10 μM, 8 h, read-out: Viability (%) (annexin V negative cells)) of 50%, a viability at 10 µM ([5]; Homo sapiens, 8 h, Figure 6C, patient #18, 10 μM, 8 h, read-out: Viability (%) (annexin V negative cells)) of 80% and a viability at 10 µM ([5]; Homo sapiens, 8 h, Figure 6C, patient #20, 10 μM, 8 h, read-out: Viability (%) (annexin V negative cells)) of 43%. For the same compound, the viability at 2.5 µM ([5]; Homo sapiens, 8 h, Figure 6C, patient #21, 2.5 μM, 8 h, read-out: Viability (%) (annexin V negative cells)) was 37%, the viability at 10 µM ([5]; Homo sapiens, 12 h, Figure 6B, patient #14, 10 μM, 12 h, read-out: Viability (%) (annexin V negative cells)) was 81% and the viability at 10 µM ([5]; Homo sapiens, 24 h, 10 μM, 24 hours, n = 20 AML samples, untreated 75.8% ± 2.9%, read-out: cell viability (annexin V negative cells)) was 35.5%. For the same compound, the viability at 10 µM ([5]; Homo sapiens, Figure 6D, patient #20, 24 h, fluorizoline 10 μM, Q-VD-OPh 20 μM pre-incubated 30 min, read-out: Viability (%) (annexin V negative cells)) was 25%, the “median LD50” value ([5]; samples at relapse (n = 6), 24 hours) was 10.3 ± 4.0 µM and the “median LD50” value ([5]; samples at relapse (n = 6), 48 hours) was 5.4 ± 1.6 µM. For the same compound, the viability at 24 h, 20 µM [6] was 68.6%, the “LD50(μM) 24 h” value ([7]; Donor No. 1-9, 24 h) was > 20 µM and 16 µM and the “LD50(μM) 48 h” value ([7]; Donor No. 1-9, 48 h) was > 20 µM and 8 µM and 13 µM. The “median LD50” value ([7]; 24 hours) was “above 20 μM”, the “median LD50” value ([7]; 48 hours) was “above 20 μM” and the “mean CFU respect to untreated cells” value (U-937 cells [8]; 5 μM) was 49.9 ± 5%. For the same compound, the “mean CFU respect to untreated cells” value (U-937 cells [8]; 10 μM) was 1.9 ± 1%, the “mean CFU respect to untreated cells” value (primary AML cells; 2.5 μM) was 39.9 ± 5% and the “mean CFU respect to untreated cells” value (primary AML cells; 10 μM) was 5.3 ± 1.5%. For the same compound, the fold induction at 40 µM (CD11b in U-937 cells) was 12.1, the fold induction at 20 µM [9] was 1.5 and the fold induction at 10 µM (NOXA mRNA in U-937 cells; 4 hours) was 3.5. For the same compound, the fold induction at 10 µM (NOXA mRNA in U-937 cells; 8 hours) was 6.6, the fold induction at 10 µM (NOXA mRNA in U-937 cells; 24 hours) was 3.1 and the LD50 [10] was 4.5 ± 2.3 µM. For the same compound, the LD50 [11] was “higher than 20 μM”.
In the case of `CC(C)[C@H](NC(=O)c1ccc2ccccc2n1)C(=O)N[C@@H](CC(=O)O)C(=O)COc1c(F)cccc1F` [Q-VD-OPh, reference compound], the “Viability (%) (annexin V negative cells)” value (U-937 cells [4]; [12]) is reported as 95%.
